One experiment concerns HTB-9 cells. In words: Pre-treatment of HTB-9 bladder epithelial cells before CY17 infection (confocal imaging, ELISA). Format: cell-based, human. How it is done:
(§1) Cells were grown on 8-well chamber slides (6×10^4 cells/well, Thermo Fischer Scientific) or in 6-well plates (6×10^5 cells/well) for 16 hours in media supplemented with 10% FBS. Media were removed, and cells were washed with PBS before adding medium without FBS. Cells were infected with bacteria diluted to appropriate concentration in PBS and incubated for one or four hours at 37° C. with 5% CO2.
(§2) The two cell types were first infected with increasing concentrations of the acute cystitis strain E. coli CY-17 (10^2-10^4 cfu/ml) for 1 to 4 hours. NK1R and SP expression was used as a read out of the cellular response. […] A concentration of 10^4 cfu/ml of CY-17 and four hours of infection was chosen for further studies. Under these conditions, there was little cytotoxicity. To further characterize the neuropeptide response to bladder infection, the in vitro analysis was extended to include GALR2, OrxR2 and TAS2R43. Confocal microscopy was used in this instance. Infected cells were fixed (3.7% formaldehyde, 15 min), permeabilized (0.25% triton X-100, 5% FBS, 10 min), blocked (5% FBS, 1 h at RT), incubated overnight with primary antibodies in 5% FBS: Anti-NK1R (1:100, SC-15323, Santa Cruz), anti-SP, (1:200, ORB11399, Biorbyt), anti-orexin receptor 2, (1:200, AB10470, Abcam), anti-TAS2R43, (1:200, AB65513, Abcam), and anti-GALR2 antibodies (1:100, AB136264, Abcam). Appropriate fluorescently labeled secondary antibodies were used (Alexa Fluor® 488 goat anti-rabbit IgG, A-11034; Life Technologies, (1 hour at Room Temperature). After nuclear staining (DRAQ5, 1:1000, Abcam) slides were mounted (Fluoromount, Sigma-Aldrich), imaged by laser scanning confocal microscopy (MSM510 META confocal microscope, Carl Zeiss) and quantified by ImageJ software 1.46r (NIH).
(§3) HTB-9 cells and differentiated SH-SY5Y cells were pre-treated with SR140333, or IL-1RA Anakinra (500 ng/ml) for 30 minutes before infection with CY17 (10^4 cfu/ml, four hours), or treatment with exogenous recombinant SP (R&D System) or IL-1β (Abnova) (20 ng/ml, four hours). After infection, cells were infected with CY17 and the NK1R, SP and IL-1β response was quantified by confocal imaging. IL-1β- and SP secretion was quantified by ELISA, in culture supernatants. In nerve- and bladder epithelial cells, SR140333 inhibited the SP/NK1R response to infection, consistent with an autocrine activation loop involving SP/NK1R as shown by confocal imaging (FIG. 10a). […] SP activated IL-1β expression and secretion in bladder epithelial cells but had no effect on IL-1β on nerve cells. (*=P<0.05, **=P<0.01, ***=P<0.001, Two-tailed t-test for confocal imaging data and Mann-Whitney U-test for ELISAs.
Furthermore, to examine if the effects of NK1R inhibition can be generalized, we used two additional NK1R antagonists (CP99994 and L703.303). HTB-9 cells and differentiated SH-SY5Y cells were pre-treated with SR140333, CP99994, L-703.606 or IL-1RA Anakinra (500 ng/ml) for 30 minutes before infection with CY17 (10^4 cfu/ml, four hours), or treatment with exogenous recombinant SP (R&D System) or IL-1β (Abnova) (20 ng/ml, four hours).
A general note: ELISA stands for enzyme-linked immunosorbent assay.

Experiment [1] has as its system differentiated SH-SY5Y cells. Briefly: Pre-treatment of differentiated SH-SY5Y nerve cells before CY17 infection (confocal imaging, ELISA). Format: cell-based, human. On the procedure: as §1, §2, §3
Furthermore, to examine if the effects of NK1R inhibition can be generalized, we used two additional NK1R antagonists (CP99994 and L703.303). […]

Where [2] appears, read: pre-treated 30 minutes before CY17 (10^4 cfu/ml, four hours).
[3] abbreviates: pre-treated before CY17 infection.

Entries after “also recorded” stand apart in the source; their conditions may differ.

As for `CC(C)Oc1cccc(CC(=O)N2CCC[C@](CC[N+]34CCC(c5ccccc5)(CC3)CC4)(c3ccc(Cl)c(Cl)c3)C2)c1.[Cl-]` [SR140333, 1-[2-[(3S)-3-(3,4-Dichlorophenyl)-1-[2-[3-(1-methylethoxy)phenyl]acetyl]-3-piperidinyl]ethyl]-4-phenyl-1-azoniabicyclo[2.2.2]octane chloride], the “SP/NK1R response to infection (confocal imaging)” value (with HTB-9 cells (setting [2]); in experiment [1] (setting [2])) was “inhibited” each time. Besides, the “IL-1β secretion (ELISA, culture supernatants)” value with HTB-9 cells (setting [3]) is recorded as “inhibited; also recorded: decreased”. For the same compound, the “SP secretion (ELISA, culture supernatants)” value in the experiment on HTB-9 cells (setting [3]) is given as “decreased”; in experiment [1] (setting [3]), “decrease”.

(Values after patent publication US20250082625A1, “NOVEL THERAPY” (priority 2016, published 2025).)
